Laboratory results taken from patent US12508302B2, “Pharmaceutical composition providing mucolytic effect” (FRIMLINE PRIVATE LIMITED, priority 2022, dated 2025).

Test system: tracheobronchial secretion in rats
Test: Mucolytic activity in rats: tracheobronchial secretion of fluorescein sodium (FINa)
Assay type: in vivo, rat (Swiss Albino Rats)
Details: for Fluorescein Sodium (FINa) Secretion: dosed 30 minutes before i.v. FINa 300 mg/kg, tracheobronchial lavage one hour after administration, doses as Table 1, mean±SEM; for Percentage (%) Enhancement of FINa secretion compared to Normal: versus normal group (G1)
Protocol: The effect of the compositions of the present invention was studied in animals. For this study, screening effect of synergistic combination of compositions/formulations comprising N-Acetyl-L-Cysteine, Lactoferrin and additional active ingredients for mucolytic activity in rat was performed. The following trials were carried out:
Eighty-Four (84) rats including male and female (Swiss Albino Rats) divided into 14 groups (6 per group) were maintained in animal house in a light/dark atmosphere based on a 12 hour cycle having temperature and relative humidity in the range of 19 to 25±2° C. and 30-70%, respectively. To maintain the appropriate conditions, temperature and relative humidity were recorded three times daily. All animals were acclimatized for a minimum period of five days. Animals were maintained in the test setup for minimum 30 minutes once during the acclimatization period to reduce the stress. Animals were weighed on the day of receipt and observed daily for abnormalities if any. Detailed records of acclimatization were also maintained. Rats were housed 3 per cage in clean, sterilized Polypropylene cages. During complete experiments, animals were supplied with the standard certified rat pellet feed and drinking water treated by reverse osmosis ad libitum.
In order to evaluate the mucolytic activity in rats, eighty-four (84) rats were screened and divided into Fourteen (14) groups. For a comparative analysis, groups were divided and treated as below:
Tracheobronchial secretion in rats, expressed by the amount of fluorescein sodium (FINa) dye excreted into the respiratory tract, was measured by modification of methods published earlier.
Lactoferrin, Carotenoid, N-Acetyl-L-Cysteine or their combinations (G4-G14) were suspended in 1% Acacia. Acetylcholine (G2) and Bromhexine (G3) were dissolved in distilled water. The said active ingredients were administered orally (1 ml/100 g body weight) 30 minutes before intravenous injection of FINa (300 mg/kg, 0.1 ml/100 g body weight) in fasted rats.
One hour after administration, all rats were sacrificed with CO2 exposure; an incision was made, and the trachea was immediately exposed. An infant feeding tube was gently inserted into the trachea (about 30 mm deep). Five milliliters of 5% NaHCO3 solution (˜37° C.) was injected into the respiratory tract and immediately aspirated while gently massaging the thoracic area.
The tracheobronchial lavage fluid (4.9±0.1 ml) was centrifuged (3500 rpm for 10 minutes) and the supernatant was transferred to STP B & L tubes. The fluorescence intensity of the supernatant was measured with a Genesys 20 spectrophotometer set at a wavelength of 510 nm (emission).

Row | Compound | Fluorescein Sodium (FINa) Secretion [μg/100 g/h] | Percentage (%) Enhancement of FINa secretion compared to Normal (doses as Table 1) | Percentage (%) Enhancement of FINa secretion compared to Normal (doses as Table 1, listed as diseased group) [%] | Percentage (%) Enhancement of FINa secretion compared to Normal (doses as Table 1, listed as N-Acetyl-L-Cysteine) [%] | Percentage (%) Enhancement of FINa secretion compared to Normal (doses as Table 1, listed as positive control) [%]
1 | CC(=O)OCC[N+](C)(C)C [Diseased Control, Acetylcholine] | 0.37 ± 0.12 | −74.13 ± 6.4 ^ % | −74.13 |  | 
2 | CC(=O)N[C@@H](CS)C(=O)O [NAC, N-Acetyl-L-Cysteine] | 1.99 ± 0.08 | 39.16 ± 5.1% |  | 39.16 | 
3 | CN(Cc1cc(Br)cc(Br)c1N)C1CCCCC1 [Positive Control, Bromhexine] | 2.64 ± 0.18 | 84.62 ± 6.1% |  |  | 84.62
